# Bridge positions count the residues as written; N and C are the ends. Peptide text beside a SMILES is read from it.
# Target: α-chymotrypsin (Bos taurus, UniProt P00766)
# Experiment: Chymotrypsin inhibitory activity of peptides (AAPFpNA hydrolysis; IC50, Ki, residual activity)
# Format: biochemical
# Conditions: for Ki: Ki=IC50/(1+S/Km), Km 0.38 mM; for IC50: chymotrypsin 30 nM, AAPFpNA 0.5 mM
# Protocol: The inhibition constants of various synthetic active peptide inhibitors (molecular scaffolds) against seine proteases were measured. The substrates N-succinyl-Ala-Ala-Pro-Phe-p-nitroaniline (AAPFpNA), Nα—Benzoyl-L-arginine-4-nitroaniline hydrochloride (BApNA) and N-succinyl-[…] (AAApNA) are used in competitive binding reaction to determine the inhibitory activities against α-chymotrypsin, bovine trypsin, and porcine pancreatic elastase, respectively. Experiments for α-chymotrypsin and bovine trypsin inhibition were measured in 20 mM CaCl2, 50 mM Tris-HCl buffer (pH 7.8), and that for porcine elastase inhibition was measured in 50 mM Tris-HCl buffer (pH 8.0). The concentration of the peptide was measured using optical density (OD) at 280 nm. The Michaelis constant (Km) of the enzyme hydrolysis substrate is calculated from the initial rate of substrate hydrolysis at 405 nm. The absorbance value of the substrate was measured at 405 nm after complete hydrolysis. All data were processed using nonlinear regression.
# • (1) Added a total 190 μL of reaction buffer (20 mM CaCl2, 50 mM Tris-HCl (pH 7.8)) into the 96 well plate, followed by preheating at 37° C. for 15 min. Then added 2 μL of different concentrations of substrates (p-Nitroanilide, pNA, 0.5% in DMSO), and mixed by centrifugation at 500 rpm for 1 min. Finally, the plate was incubated at 37° C. for 20 min, and the absorbance value at 405 nm was measured. In the 200 μL of reaction system, the final concentrations of pNA were 0, 0.025, 0.05, 0.075, 0.1, 0.125, 0.15, 0.25, and 0.3 mM, respectively. Make three repetitions for each concentration and plot the OD405 m value with pNA concentration to obtain the standard curve. • (2) Added a total 190 μL of reaction buffer (20 mM CaCl2, 50 mM Tris-HCl (pH 7.8)) and 8 μL of 0.75 μM chymotrypsin into the 96 well plate, followed by preheating at 37° C. for 5 min. Then added 2 μL of different concentrations of substrates (AAPFpNA, dissolved in DMSO), and mixed by centrifugation at 500 rpm for 1 min. Finally, the plate was incubated at 37° C. for 20 min, and the absorbance value at 405 nm was measured. In the 200 μL of reaction system, the final concentrations of AAPFpNA were 0, 0.125, 0.25, 0.285, 0.33, 0.4, and 0.5 mM, respectively. Make three repetitions for each concentration and plot the OD405 nm value with time to obtain the corresponding curve. Divide the slope of the curve by the slope of the standard curve and the enzyme concentration to obtain the initial velocity V0 (mM/(min*mM protein). Plot the initial velocity V0 with the concentration of substrate AAPFpNA using Prism software, and the Michaelis constant Km value of chymotrypsin hydrolyzing AAPFpNA was obtained.
# • (1) Added a total 190 μL of reaction buffer (20 mM CaCl2, 50 mM Tris-HCl (pH 7.8)), different concentrations of anti-chymorypsin peptides (CHs) into the pre-cold 96 well plate, followed by preheating at 37° C. for 5 min and centrifugated at 500 rpm for 1 min and allowed to stand for 4 minutes. Then added 8 μL of 750 nM chymotrypsin and incubated at 37° C. for 10 min, and centrifugated at 500 rpm for 1 min and allowed to stand for 9 minutes. Finally, added 2 μL of 50 mM AAPFpNA, and mixed by centrifugation at 500 rpm for 1 min. The plate was incubated at 37° C. for 90 min, and the absorbance value at 405 nm was measured. Three repetitions were made, and only reaction buffer and substrate were added in the blank control as the minimum absorption value (Min OD405 nm); Only reaction buffer, enzyme and substrate were added in the negative control as the maximum absorption value (Max OD405). • (2) In the 200 μL of reaction system, the final concentrations of chymotrypsin and AAPFpNA were 30 nM and 0.5 mM, respectively. • (3) Data statistics
# Residual activity of enzyme (%)=(1−(Max OD405 nm−Sample OD405 nm)/(Max OD405 nm−Min OD405 nm))*100 […]
Structure (SMILES),Ki,IC50,inhibitory activity against chymotrypsin (in words),further results
CC[C@H](C)[C@@H]1NC(=O)[C@H](CO)NC(=O)[C@H](Cc2ccccc2)NC(=O)[C@H]([C@@H](C)O)NC(=O)CNC(=O)[C@H](Cc2ccccc2)NC(=O)CNC(=O)[C@@H](N)CSSC[C@@H](C(=O)N[C@@H](Cc2ccc(O)cc2)C(=O)NCC(=O)O)NC(=O)[C@H](CCC(N)=O)NC(=O)[C@@H]2CCCN2C(=O)[C@@H]2CCCN2C1=O [CH7] (H-CGFGTFSIPPQCYG-OH; disulfide 1-12; N-terminus and C-terminus assumed),9.65 µM,22.3 µM,certain inhibitory activity against chymotrypsin,Residual activity of chymotrypsin (peptide 0.01 μM): 100.9 ± 1.3%; Residual activity of chymotrypsin (peptide 0.1 μM): 98.8 ± 3.9%; Residual activity of chymotrypsin (peptide 1 μM): 101.7 ± 6.3%; Residual activity of chymotrypsin (peptide 10 μM): 77.7 ± 2.0%; Residual activity of chymotrypsin (peptide 25 μM): 46.0 ± 1.0%; Residual activity of chymotrypsin (peptide 50 μM): 25.8 ± 0.9%; Residual activity of chymotrypsin (peptide 100 μM): 14.1 ± 0.9%; Residual activity of chymotrypsin (peptide 300 μM): 4.1 ± 0.1%; Residual activity of chymotrypsin (peptide 1000 μM): 1.2 ± 0.1%
CC[C@H](C)[C@@H]1NC(=O)[C@H](CO)NC(=O)[C@H](Cc2ccc(O)cc2)NC(=O)[C@H]([C@@H](C)O)NC(=O)[C@H](C)NC(=O)[C@H](CO)NC(=O)[C@@H](N)CSSC[C@@H](C(=O)N[C@@H](Cc2ccc(O)cc2)C(=O)O)NC(=O)[C@H](CCC(N)=O)NC(=O)[C@@H]2CCCN2C(=O)[C@@H]2CCCN2C1=O [CH8] (H-CSATYSIPPQCY-OH; disulfide 1-11; N-terminus and C-terminus assumed),–,> 50 µM,–,–
CC[C@H](C)[C@@H]1NC(=O)[C@H](CO)NC(=O)[C@H](Cc2ccc(O)cc2)NC(=O)[C@H]([C@@H](C)O)NC(=O)[C@H](C)NC(=O)[C@H](CO)NC(=O)CNC(=O)[C@@H](N)CSSC[C@@H](C(=O)N[C@@H](Cc2ccc(O)cc2)C(=O)O)NC(=O)[C@H](CCC(N)=O)NC(=O)[C@@H]2CCCN2C(=O)[C@@H]2CCCN2C1=O [CH9] (H-CGSATYSIPPQCY-OH; disulfide 1-12; N-terminus and C-terminus assumed),12.3 µM,28.4 µM,certain inhibitory activity against chymotrypsin,–
CC[C@H](C)[C@@H]1NC(=O)[C@H](CO)NC(=O)[C@H](Cc2ccccc2)NC(=O)[C@H]([C@@H](C)O)NC(=O)[C@H](C)NC(=O)[C@H](Cc2ccccc2)NC(=O)CNC(=O)[C@@H](N)CSSC[C@@H](C(=O)N[C@@H](Cc2ccc(O)cc2)C(=O)NCC(=O)O)NC(=O)[C@H](CCC(N)=O)NC(=O)[C@@H]2CCCN2C(=O)[C@@H]2CCCN2C1=O [CH12] (H-CGFATFSIPPQCYG-OH; disulfide 1-12),–,> 50 µM,–,–
CC[C@H](C)[C@@H]1NC(=O)[C@H](CO)NC(=O)[C@H](Cc2ccccc2)NC(=O)[C@H]([C@@H](C)O)NC(=O)[C@H](C)NC(=O)[C@H](CO)NC(=O)CNC(=O)[C@@H](N)CSSC[C@@H](C(=O)N[C@@H](Cc2ccc(O)cc2)C(=O)NCC(=O)O)NC(=O)[C@H](CCC(N)=O)NC(=O)[C@@H]2CCCN2C(=O)[C@@H]2CCCN2C1=O [CH13] (H-CGSATFSIPPQCYG-OH; disulfide 1-12; N-terminus and C-terminus assumed),2.43 µM,5.62 µM,good inhibitory activity,–
CC[C@H](C)[C@@H]1NC(=O)[C@H](CO)NC(=O)[C@H](Cc2ccc(O)cc2)NC(=O)[C@H]([C@@H](C)O)NC(=O)[C@H](C)NC(=O)[C@H](Cc2ccccc2)NC(=O)CNC(=O)[C@@H](N)CSSC[C@@H](C(=O)N[C@@H](Cc2ccc(O)cc2)C(=O)NCC(=O)O)NC(=O)[C@H](CCC(N)=O)NC(=O)[C@@H]2CCCN2C(=O)[C@@H]2CCCN2C1=O [CH14] (H-CGFATYSIPPQCYG-OH; disulfide 1-12),–,> 50 µM,–,–

# Second part, led by results:
Ki,IC50,Structure (SMILES),inhibitory activity against chymotrypsin (in words),further results
1.99 µM,4.6 µM,CC[C@H](C)[C@@H]1NC(=O)[C@H](CO)NC(=O)[C@H](Cc2ccc(O)cc2)NC(=O)[C@H]([C@@H](C)O)NC(=O)[C@H](C)NC(=O)[C@H](CO)NC(=O)CNC(=O)[C@@H](N)CSSC[C@@H](C(=O)N[C@@H](Cc2ccc(O)cc2)C(=O)NCC(=O)O)NC(=O)[C@H](CCC(N)=O)NC(=O)[C@@H]2CCCN2C(=O)[C@@H]2CCCN2C1=O [CH15] (H-CGSATYSIPPQCYG-OH; disulfide 1-12; N-terminus and C-terminus assumed),–,–
–,> 50 µM,CC[C@H](C)[C@@H]1NC(=O)[C@H](CO)NC(=O)[C@H](Cc2ccc(O)cc2)NC(=O)[C@H]([C@@H](C)O)NC(=O)[C@H](C)NC(=O)[C@H](CO)NC(=O)[C@@H](N)CSSC[C@@H](C(=O)N[C@@H](Cc2ccc(O)cc2)C(=O)NCC(=O)O)NC(=O)[C@H](CCC(N)=O)NC(=O)[C@@H]2CCCN2C(=O)[C@@H]2CCCN2C1=O [CH16] (H-CSATYSIPPQCYG-OH; disulfide 1-11; N-terminus and C-terminus assumed),–,–
4.87 µM,11.3 µM,CC[C@H](C)[C@@H]1NC(=O)[C@H](CO)NC(=O)[C@H](CC(C)C)NC(=O)[C@H]([C@@H](C)O)NC(=O)[C@@H](NC(=O)[C@@H](N)Cc2ccccc2)CSSC[C@@H](C(=O)N[C@@H](Cc2ccc(O)cc2)C(=O)NCC(=O)O)NC(=O)[C@H](CCC(N)=O)NC(=O)[C@@H]2CCCN2C(=O)[C@@H]2CCCN2C1=O [CH19] (H-FCTLSIPPQCYG-OH; disulfide 2-10; N-terminus and C-terminus assumed),–,–
7.1 µM,16.4 µM,CC[C@H](C)[C@@H]1NC(=O)[C@@H]2CCCN2C(=O)[C@@H]2CCCN2C(=O)[C@H]([C@@H](C)CC)NC(=O)[C@H](CO)NC(=O)[C@H](Cc2ccc(O)cc2)NC(=O)[C@H](CC(C)C)NC(=O)[C@@H](NC(=O)[C@H](CCCCN)NC(=O)CN)CSSC[C@@H](C(=O)N[C@@H](Cc2ccccc2)C(=O)N2CCC[C@H]2C(=O)N[C@@H](CC(N)=O)C(=O)O)NC1=O [CH20] (H-GKCLYSIPPICFPN-OH; disulfide 3-11; N-terminus and C-terminus assumed),–,–
–,> 50 µM,CC[C@H](C)[C@@H]1NC(=O)[C@H](CO)NC(=O)[C@H](Cc2ccc(O)cc2)NC(=O)[C@H]([C@@H](C)O)NC(=O)[C@H](C)NC(=O)[C@H](CC(N)=O)NC(=O)CNC(=O)[C@@H](N)CSSC[C@@H](C(=O)N[C@@H](Cc2ccc(O)cc2)C(=O)NCC(=O)O)NC(=O)[C@H](CCC(N)=O)NC(=O)[C@@H]2CCCN2C(=O)[C@@H]2CCCN2C1=O [CH21] (H-CGNATYSIPPQCYG-OH; disulfide 1-12; N-terminus and C-terminus assumed),–,–
–,> 50 µM,CC[C@H](C)[C@@H]1NC(=O)[C@H](CO)NC(=O)[C@H](Cc2ccc(O)cc2)NC(=O)[C@H]([C@@H](C)O)NC(=O)[C@H](C)NC(=O)[C@H]([C@@H](C)O)NC(=O)CNC(=O)[C@@H](N)CSSC[C@@H](C(=O)N[C@@H](Cc2ccc(O)cc2)C(=O)NCC(=O)O)NC(=O)[C@H](CCC(N)=O)NC(=O)[C@@H]2CCCN2C(=O)[C@@H]2CCCN2C1=O [CH22] (H-CGTATYSIPPQCYG-OH; disulfide 1-12; N-terminus and C-terminus assumed),–,–
1.86 µM,4.31 µM,CC[C@H](C)[C@@H]1NC(=O)[C@H](CO)NC(=O)[C@H](Cc2ccc(O)cc2)NC(=O)[C@H]([C@@H](C)O)NC(=O)[C@H](C)NC(=O)[C@H](CO)NC(=O)CNC(=O)[C@@H](N)CSSC[C@@H](C(=O)N[C@H](C(=O)NCC(=O)O)C(C)C)NC(=O)[C@H](CCC(N)=O)NC(=O)[C@H](C)NC(=O)[C@@H]2CCCN2C1=O [CH23] (H-CGSATYSIPAQCVG-OH; disulfide 1-12; N-terminus and C-terminus assumed),good inhibitory activity,–

# Source: patent publication US20230416329A1, “A PEPTIDE WITH DISULFIDE BONDS AND INHIBITORY ACTIVITY AGAINST SERINE PROTEASES, DERIVED HYBRID PEPTIDES THEREOF, AND USES THEREOF” (INSTITUTE OF MATERIA MEDICA , CHINESE ACADEMY OF MEDICAL …, priority 2020, published 2023)
